# Key:
# AAK1 = target: T1, AAK1 (Homo sapiens, UniProt Q2M2I8); assay: KiNativ kinome profiling in PANC-1 lysate; assay type: binding; details: Lys2
# T1 construct: endogenous in cells; host or cells: PANC-1 cell lysate
# Method in brief: (§1)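 PANC-1 lysates were incubated with 5 μM inhibitor or DMSO, then labeled with a desthiobiotin-ATP acyl-phosphate probe that biotinylates conserved kinase lysines. Tryptic peptides were streptavidin-enriched and quantified by LC-MS/MS, reported as % change in MS signal from duplicate treated and duplicate control samples.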
# PI4KB = target: T2, PI4KB (Homo sapiens, UniProt Q9UBF8); assay: KiNativ kinome profiling in PANC-1 lysate; assay type: binding; details: ATP
# T2 construct: endogenous in cells; host or cells: PANC-1 cell lysate
# Method in brief: as §1
# MAST4 = target: T3, MAST4 (Homo sapiens, UniProt O15021); assay: KiNativ kinome profiling in PANC-1 lysate; assay type: binding; details: Lys2
# T3 construct: endogenous in cells; host or cells: PANC-1
# Method in brief: as §1
# MAP4K3 = target: T4, MAP4K3 (Homo sapiens, UniProt Q8IVH8); assay: KiNativ kinome profiling in PANC-1 lysate; assay type: binding
# T4 construct: endogenous in cells; host or cells: PANC-1 cell lysate
# Method in brief: as §1
# CLK2 = target: T5, CLK2 (Homo sapiens, UniProt P49760); assay: KiNativ kinome profiling in PANC-1 lysate; assay type: binding; details: Lys2
# T5 construct: endogenous in cells; host or cells: PANC-1 cell lysate
# Method in brief: as §1
# DGKH = target: T6, DGKH (Homo sapiens, UniProt Q86XP1); assay: KiNativ kinome profiling in PANC-1 lysate; assay type: binding; details: ATP
# T6 construct: endogenous in cells; host or cells: PANC-1 lysate
# Method in brief: as §1
# ILK = target: T7, ILK (Homo sapiens, UniProt Q13418); assay: KiNativ kinome profiling in PANC-1 lysate; assay type: binding
# T7 construct: we opted to conduct a kinome screen (KiNativ) in PANC-1 cell lysates; endogenous in cells; host or cells: PANC-1 cell lysate
# Method in brief: as §1
# [1] = system: TNFα-induced, MAP3K1-mediated IKKβ phosphorylation; assay: AlphaLISA phospho-IKKβ / total IKKβ assay in MiaPaCa2 cells; assay type: cell-based, Human; details: 20, 10, 5 μM, 30 min pretreatment, 10 ng/mL TNFα
# Excerpt: MAP3K1 was previously shown to phosphorylate IKKβ [12] and regulate NF-κB signaling. Therefore, we validated the ability of 51-106 to inhibit MAP3K1 by probing the phosphorylation status of the known substrate, IKKβ, using an AlphaLISA assay. The pancreatic cancer cells (MiaPaCa2) were subjected to a 30-min pretreatment with varying concentrations of 51-106, followed by TNFα stimulation to induce IKKβ phosphorylation. Following a 15-min stimulation, the levels of phospho-IKKβ and total IKKβ were quantified. […] (Figure 3A). Next, we evaluated the efficacy of 51-106 in a cell-based reporter assay utilizing a HeLa cell line that specifically responds to TNFα induced expression of a luciferase reporter gene that is under the control of an NF-κB response element.
# A suspension of MiaPaCa2 cells (2 × 10^5/well) in 200 μL media was plated in a flat, clear-bottomed, sterile, 48-well tissue culture plate (Cat# 353230; Corning; Corning, NY, USA). The cells were allowed to attach to the plate for ~8 h in a humidified 5% CO2 incubator at 37 °C. […] Phospho-IKKβ levels were normalized to total […], and fold change was calculated compared to DMSO treatment. […] The statistical significance between groups was determined via unpaired t-tests coupled with post hoc analysis with Welch’s correction.
# T7 sequence (Q13418 whole entry): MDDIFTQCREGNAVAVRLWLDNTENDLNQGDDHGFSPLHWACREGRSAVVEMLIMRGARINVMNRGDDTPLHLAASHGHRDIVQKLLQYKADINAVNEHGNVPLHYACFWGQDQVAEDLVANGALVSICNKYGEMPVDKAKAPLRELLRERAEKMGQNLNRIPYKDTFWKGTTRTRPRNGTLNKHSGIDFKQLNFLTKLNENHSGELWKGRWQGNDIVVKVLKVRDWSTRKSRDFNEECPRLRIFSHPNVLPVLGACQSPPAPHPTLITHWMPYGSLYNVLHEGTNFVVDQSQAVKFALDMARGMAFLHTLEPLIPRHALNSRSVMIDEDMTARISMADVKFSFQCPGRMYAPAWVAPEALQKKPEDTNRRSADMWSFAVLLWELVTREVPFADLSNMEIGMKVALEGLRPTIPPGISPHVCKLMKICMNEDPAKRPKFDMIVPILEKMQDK
# T2 sequence (Q9UBF8 whole entry): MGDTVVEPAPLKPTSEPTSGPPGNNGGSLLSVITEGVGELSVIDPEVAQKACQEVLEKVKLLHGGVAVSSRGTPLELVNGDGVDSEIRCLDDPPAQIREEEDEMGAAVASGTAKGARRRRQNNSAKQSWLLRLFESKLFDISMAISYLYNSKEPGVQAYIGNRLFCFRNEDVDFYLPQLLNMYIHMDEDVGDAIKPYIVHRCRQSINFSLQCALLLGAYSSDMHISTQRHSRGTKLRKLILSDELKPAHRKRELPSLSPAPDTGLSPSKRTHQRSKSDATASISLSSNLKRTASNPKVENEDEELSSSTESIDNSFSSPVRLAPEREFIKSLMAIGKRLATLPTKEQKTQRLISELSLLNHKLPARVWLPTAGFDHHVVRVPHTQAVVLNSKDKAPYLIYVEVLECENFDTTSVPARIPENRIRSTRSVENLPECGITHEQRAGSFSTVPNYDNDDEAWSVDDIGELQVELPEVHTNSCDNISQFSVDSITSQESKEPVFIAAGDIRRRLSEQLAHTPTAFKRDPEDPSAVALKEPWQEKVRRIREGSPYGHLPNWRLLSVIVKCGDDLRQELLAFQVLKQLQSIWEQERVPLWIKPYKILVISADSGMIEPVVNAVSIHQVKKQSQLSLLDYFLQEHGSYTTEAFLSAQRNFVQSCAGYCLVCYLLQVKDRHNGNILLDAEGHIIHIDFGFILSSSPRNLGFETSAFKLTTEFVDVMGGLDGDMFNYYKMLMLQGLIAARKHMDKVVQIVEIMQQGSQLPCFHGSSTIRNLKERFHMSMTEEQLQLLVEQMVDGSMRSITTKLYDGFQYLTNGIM
# T4 sequence (Q8IVH8 whole entry): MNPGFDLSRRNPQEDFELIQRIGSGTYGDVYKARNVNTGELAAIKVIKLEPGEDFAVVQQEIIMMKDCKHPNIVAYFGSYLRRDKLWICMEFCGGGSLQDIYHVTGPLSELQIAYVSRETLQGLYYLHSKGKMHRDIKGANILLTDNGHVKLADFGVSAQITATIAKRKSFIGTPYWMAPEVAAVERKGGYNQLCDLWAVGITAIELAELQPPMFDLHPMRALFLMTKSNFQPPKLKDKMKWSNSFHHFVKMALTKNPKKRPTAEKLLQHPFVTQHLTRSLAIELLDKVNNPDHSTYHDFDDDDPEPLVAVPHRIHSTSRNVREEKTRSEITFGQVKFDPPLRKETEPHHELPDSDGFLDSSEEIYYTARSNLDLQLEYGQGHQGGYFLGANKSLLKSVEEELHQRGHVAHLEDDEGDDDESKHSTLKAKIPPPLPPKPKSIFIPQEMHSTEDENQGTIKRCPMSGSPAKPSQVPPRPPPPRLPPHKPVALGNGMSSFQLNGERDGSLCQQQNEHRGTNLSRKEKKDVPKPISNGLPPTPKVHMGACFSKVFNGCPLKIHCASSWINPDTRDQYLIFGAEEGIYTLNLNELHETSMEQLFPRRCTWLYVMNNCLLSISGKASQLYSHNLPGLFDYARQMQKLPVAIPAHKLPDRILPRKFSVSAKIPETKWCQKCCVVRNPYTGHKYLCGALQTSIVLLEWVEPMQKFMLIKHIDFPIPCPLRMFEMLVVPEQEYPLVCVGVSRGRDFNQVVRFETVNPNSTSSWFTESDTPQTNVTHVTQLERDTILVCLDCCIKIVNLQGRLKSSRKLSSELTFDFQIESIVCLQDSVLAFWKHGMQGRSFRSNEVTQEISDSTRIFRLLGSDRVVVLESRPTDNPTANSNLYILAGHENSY
# T6 sequence (Q86XP1 whole entry): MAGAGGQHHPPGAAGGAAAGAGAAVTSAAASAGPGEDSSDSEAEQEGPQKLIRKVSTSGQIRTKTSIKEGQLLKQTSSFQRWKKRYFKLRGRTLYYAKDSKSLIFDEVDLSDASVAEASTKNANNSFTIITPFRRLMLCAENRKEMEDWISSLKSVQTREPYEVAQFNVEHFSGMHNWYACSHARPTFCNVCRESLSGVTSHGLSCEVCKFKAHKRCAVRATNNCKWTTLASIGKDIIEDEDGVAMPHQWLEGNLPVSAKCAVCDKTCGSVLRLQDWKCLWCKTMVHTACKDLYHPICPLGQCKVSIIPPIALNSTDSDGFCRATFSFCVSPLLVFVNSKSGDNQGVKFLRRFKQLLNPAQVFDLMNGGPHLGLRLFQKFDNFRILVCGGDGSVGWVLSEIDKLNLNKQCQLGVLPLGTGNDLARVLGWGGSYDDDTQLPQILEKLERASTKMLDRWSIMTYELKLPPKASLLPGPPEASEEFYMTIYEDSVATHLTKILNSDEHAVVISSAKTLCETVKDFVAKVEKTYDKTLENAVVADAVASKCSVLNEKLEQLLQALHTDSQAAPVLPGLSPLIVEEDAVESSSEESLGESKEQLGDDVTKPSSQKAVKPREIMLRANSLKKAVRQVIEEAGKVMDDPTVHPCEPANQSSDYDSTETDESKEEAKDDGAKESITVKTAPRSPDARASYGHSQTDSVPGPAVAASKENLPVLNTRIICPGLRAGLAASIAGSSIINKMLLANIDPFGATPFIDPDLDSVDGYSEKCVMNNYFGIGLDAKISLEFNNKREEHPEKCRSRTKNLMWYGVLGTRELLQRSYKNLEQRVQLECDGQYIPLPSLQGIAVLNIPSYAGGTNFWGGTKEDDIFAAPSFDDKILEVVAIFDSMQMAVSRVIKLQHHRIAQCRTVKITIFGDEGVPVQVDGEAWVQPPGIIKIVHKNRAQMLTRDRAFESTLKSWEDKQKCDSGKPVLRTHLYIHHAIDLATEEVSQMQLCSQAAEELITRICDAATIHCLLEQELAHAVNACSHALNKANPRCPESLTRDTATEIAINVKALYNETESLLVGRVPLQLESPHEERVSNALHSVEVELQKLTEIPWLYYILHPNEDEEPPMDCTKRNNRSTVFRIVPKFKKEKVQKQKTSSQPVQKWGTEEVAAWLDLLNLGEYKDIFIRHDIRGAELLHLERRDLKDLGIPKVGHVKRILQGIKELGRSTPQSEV
# T1 sequence (Q2M2I8 whole entry): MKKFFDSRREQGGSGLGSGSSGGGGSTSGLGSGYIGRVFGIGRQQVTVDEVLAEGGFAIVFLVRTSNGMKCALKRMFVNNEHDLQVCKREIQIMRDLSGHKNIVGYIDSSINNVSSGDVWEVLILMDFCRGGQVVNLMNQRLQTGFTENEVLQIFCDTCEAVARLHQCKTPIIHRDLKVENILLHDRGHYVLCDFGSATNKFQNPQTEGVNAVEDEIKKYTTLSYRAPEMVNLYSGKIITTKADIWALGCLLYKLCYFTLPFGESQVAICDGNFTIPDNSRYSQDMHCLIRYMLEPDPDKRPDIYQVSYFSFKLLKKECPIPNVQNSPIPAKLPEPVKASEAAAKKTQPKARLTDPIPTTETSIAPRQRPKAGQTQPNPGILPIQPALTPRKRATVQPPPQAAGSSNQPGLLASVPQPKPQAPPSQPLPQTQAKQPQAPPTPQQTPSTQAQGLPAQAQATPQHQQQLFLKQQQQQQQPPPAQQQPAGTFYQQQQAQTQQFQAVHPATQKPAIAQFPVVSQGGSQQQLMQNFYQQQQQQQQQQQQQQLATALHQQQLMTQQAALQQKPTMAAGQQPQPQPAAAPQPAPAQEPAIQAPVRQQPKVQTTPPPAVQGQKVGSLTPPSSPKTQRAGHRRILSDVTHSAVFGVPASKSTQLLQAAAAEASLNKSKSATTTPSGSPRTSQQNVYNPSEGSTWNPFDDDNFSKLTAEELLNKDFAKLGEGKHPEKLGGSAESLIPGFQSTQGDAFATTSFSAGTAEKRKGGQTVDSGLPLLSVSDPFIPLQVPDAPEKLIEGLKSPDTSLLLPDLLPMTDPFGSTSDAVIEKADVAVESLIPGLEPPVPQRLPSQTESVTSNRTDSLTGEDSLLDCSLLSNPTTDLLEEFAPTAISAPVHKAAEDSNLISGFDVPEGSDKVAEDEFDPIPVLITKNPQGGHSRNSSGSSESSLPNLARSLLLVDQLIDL
# T5 sequence (P49760 whole entry): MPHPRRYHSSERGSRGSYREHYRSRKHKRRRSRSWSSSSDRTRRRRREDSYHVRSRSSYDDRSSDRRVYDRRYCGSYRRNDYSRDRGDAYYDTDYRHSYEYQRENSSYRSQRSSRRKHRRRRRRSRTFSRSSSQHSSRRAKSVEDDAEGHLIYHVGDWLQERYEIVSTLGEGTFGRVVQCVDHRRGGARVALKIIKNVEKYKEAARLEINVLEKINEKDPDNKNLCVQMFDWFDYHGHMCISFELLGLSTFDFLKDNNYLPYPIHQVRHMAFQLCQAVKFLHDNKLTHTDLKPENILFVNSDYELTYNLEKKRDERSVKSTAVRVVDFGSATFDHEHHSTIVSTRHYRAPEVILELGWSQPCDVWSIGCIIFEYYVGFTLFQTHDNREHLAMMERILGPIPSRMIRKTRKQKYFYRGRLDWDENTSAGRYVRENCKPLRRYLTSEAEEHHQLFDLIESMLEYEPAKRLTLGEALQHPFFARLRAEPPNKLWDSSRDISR
smiles,measurement,setting,value
"Cn1cc(-c2cnc3ccc(NC(=O)Nc4ccc(F)c(C(F)(F)F)c4)cc3n2)cn1 [51-106, 1-(4-Fluoro-3-(trifluoromethyl)phenyl)-3-(3-(1-methyl-1H-pyrazol-4-yl)quinoxalin-6-yl)urea]",inhibition at 5 µM,AAK1,3.5%
same,inhibition at 5 µM,PI4KB; LLSVIVKCGDDLRQELLAFQVLK,≤ 0%
same,inhibition at 5 µM,PI4KB; VPHTQAVVLNSKDK,3.9%
same,inhibition at 5 µM,MAST4,≤ 0%
same,inhibition at 5 µM,"MAP4K3; Lys1, NVNTGELAAIKVIK",4.7%
same,inhibition at 5 µM,"MAP4K3; Lys2, DIKGANILLTDNGHVK",≤ 0%
same,inhibition at 5 µM,CLK2,≤ 0%
same,inhibition at 5 µM,DGKH,≤ 0%
same,% Inhibition,"ILK; 5 µM, Protein Kinase Domain, ISMADVKFSFQCPGR",NB (NB = No Binding (≤ 0))
same,inhibition at 5 µM,"ILK; Lys1, […]",≤ 0%
same,"TNFα-induced, MAP3K1-mediated IKKβ phosphorylation (phospho-IKKβ / total IKKβ)",[1],"inhibits TNFα-induced, MAP3K1-mediated IKKβ phosphorylation in a dose-dependent manner"
